Patent US9845322B2 (Hoffmann-La Roche Inc., priority 2016, dated 2017)
Where two headings read alike, the source gives them in different places.

Tested on: HBsAg secretion in HepG2.2.15 cells
Assay: HBsAg assay (chemiluminescence immunoassay of secreted HBsAg in culture supernatant)
Format: cell-based, HBV
Description: HepG2.2.15 cells (Acs et al. Proc Natl Acad Sci USA, 84, (1987), 4641-4), a constitutively HBV-expressing cell line were cultured in DMEM+Glutamax-I medium (Invitrogen, Carlsbad, Calif., USA), supplemented with 10% fetal bovine serum (Invitrogen) and G418 (Invitrogen) at a final concentration of 200 mg/L and maintained in 5% CO2 at 37° C.
HepG2.2.15 cells were seeded in duplicate into white, 96-well plates at 1.5×10^4 cells/well. The cells were treated with a three-fold serial dilution series of the compounds in DMSO. The final DMSO concentration in all wells was 1% and DMSO was used as no drug control.
The HBsAg chemiluminescence immunoassay (CLIA) kit (Autobio Diagnostics Co., Zhengzhou, China, Catalog number: CL0310-2) was used to measure the levels of secreted HBV antigens semi-quantitatively. For the detection 50 μL/well culture supernatant was used and HBsAg was quantified using HBsAg chemiluminescence immunoassay (CLIA) kit (Autobio Diagnostics Co., Zhengzhou, China, Catalog number: CL0310-2), 50 μL of the supernatant was transferred to the CLIA assay plate and 50 μL of enzyme conjugate reagent was added into each well. The plates were sealed and gently agitated for 1 hour at room temperature. The supernatant-enzyme-mixture was discarded and wells were washed 6 times with 300 μL of PBS. The residual liquid was removed by plating the CLIA plate […] on absorbent tissue paper. 25 μL of substrates A and B were added to each well. Luminance was measured using a luminometer (Mithras LB 940 Multimode Microplate Reader) after 10 minutes incubation. Dose-response curves were generated and the IC50 value was extrapolated by using the E-WorkBook Suite (ID Business Solutions Ltd., Guildford, UK). The IC50 was defined as the compound concentration (or conditioned media log dilution) at which HBsAg secretion was reduced by 50% compared to the no drug control.
The compounds according to formula I were tested for their capacity to inhibit HBsAg as described herein.

[1] = HepG2.2.15 cells, concentration at which HBsAg secretion was reduced by 50% compared to the no drug control, read-out: IC50 (HBsAg assay)
[2] = Hepatitis B virus, HepG2.2.15, HepG2.2.15 cells, concentration at which HBsAg secretion was reduced by 50% compared to the no drug control, read-out: IC50 (HBsAg assay)

Compound | IC50 [2] | also measured
CC1c2cnc(-c3ncccn3)nc2CCN1c1cc(N2CCCC2)cc(F)n1 (single isomer, unassigned; (+)) [Example 201, (+)-6-(6-fluoro-4-pyrrolidin-1-yl-2-pyridyl)-5-methyl-2-pyrimidin-2-yl-7,8-dihydro-5H-pyrido[4,3-d]pyrimidine] |  | IC50 [1]: 124 nM
CC1c2cnc(-c3ncccn3)nc2CCN1c1cc(F)c(F)c(OCCC2COC2)c1 (stereo not shown) [Example 79, 6-[3,4-difluoro-5-[2-(oxetan-3-yl)ethoxy]phenyl]-5-methyl-2-pyrimidin-2-yl-7,8-dihydro-5H-pyrido[4,3-d]pyrimidine] | 15 nM | 
CC1c2cnc(-c3ccccn3)nc2CCN1c1cc(OCCCCCC(=O)O)cc(F)n1 (stereo not shown) [Example 170, 6-[[2-fluoro-6-[5-methyl-2-(2-pyridyl)-7,8-dihydro-5H-pyrido[4,3-d]pyrimidin-6-yl]-4-pyridyl]oxy]hexanoic acid] | 16 nM | 
COc1cc(N2CCc3nc(-c4ccccn4)ncc3C2C)cc(F)c1F (single isomer, unassigned; (-)) [Example 7, (−)-6-(3,4-difluoro-5-methoxy-phenyl)-5-methyl-2-(2-pyridyl)-7,8-dihydro-5H-pyrido[4,3-d]pyrimidine] |  | IC50 [1]: 12 nM
CC1c2cnc(-c3ncccn3)nc2CCN1c1cc(F)c(F)c(OCCCN2CCNC2=O)c1 (stereo not shown) [Example 113, 1-[3-[2,3-difluoro-5-(5-methyl-2-pyrimidin-2-yl-7,8-dihydro-5H-pyrido[4,3-d]pyrimidin-6-yl)phenoxy]propyl]imidazolidin-2-one] | 94 nM | 
CC1c2cnc(-c3ncccn3)nc2CCN1c1cc(F)nc(OCC(F)F)c1 (stereo not shown) [Example 150, 6-[2-(2,2-difluoroethoxy)-6-fluoro-4-pyridyl]-5-methyl-2-pyrimidin-2-yl-7,8-dihydro-5H-pyrido[4,3-d]pyrimidine] | 49 nM | 
COc1cc(N2CCc3nc(-c4ncccn4)ncc3C2C)c(Cl)c(F)c1Cl (single isomer, unassigned; (+)) [Example 125, (+)-6-(2,4-dichloro-3-fluoro-5-methoxy-phenyl)-5-methyl-2-pyrimidin-2-yl-7,8-dihydro-5H-pyrido[4,3-d]pyrimidine] | 1120 nM | 
COC(=O)COc1cc(N2CCc3nc(-c4ccccn4)ncc3C2C)cc(F)c1F (stereo not shown) [Example 27, methyl 2-[2,3-difluoro-5-[5-methyl-2-(2-pyridyl)-7,8-dihydro-5H-pyrido[4,3-d]pyrimidin-6-yl]phenoxy]acetate] | 3430 nM | 
CC(=O)NCCCOc1cc(N2CCc3nc(-c4ncccn4)ncc3C2C)cc(F)c1F (stereo not shown) [Example 92, N-[3-[2,3-difluoro-5-(5-methyl-2-pyrimidin-2-yl-7,8-dihydro-5H-pyrido[4,3-d]pyrimidin-6-yl)phenoxy]propyl]acetamide] | 54 nM | 
CC1c2cnc(-c3ccccn3)nc2CCN1c1cc(OCC2CCOC2)cc(F)n1 (stereo not shown) [Example 188, 6-[6-fluoro-4-(tetrahydrofuran-3-ylmethoxy)-2-pyridyl]-5-methyl-2-(2-pyridyl)-7,8-dihydro-5H-pyrido[4,3-d]pyrimidine] | 29 nM | 
CC(=O)N1CCN(CCCOc2cc(N3CCc4nc(-c5ncccn5)ncc4C3C)cc(F)c2F)CC1 (stereo not shown) [Example 109, 1-[4-[3-[2,3-difluoro-5-(5-methyl-2-pyrimidin-2-yl-7,8-dihydro-5H-pyrido[4,3-d]pyrimidin-6-yl)phenoxy]propyl]piperazin-1-yl]ethanone] | 80 nM | 
COc1cc(N2CCc3nc(-c4ncccn4)ncc3C2C)cc(F)c1C#N (stereo not shown) [Example 22, 2-fluoro-6-methoxy-4-(5-methyl-2-pyrimidin-2-yl-7,8-dihydro-5H-pyrido[4,3-d]pyrimidin-6-yl)benzonitrile] |  | IC50 (Hepatitis B virus, HepG2.2.15, read-out: IC50 (HBsAg assay)): 27 nM
CC1c2cnc(-c3ncccn3)nc2CCN1c1cc(F)cc(OCC(F)F)c1 (stereo not shown) [Example 143, 6-[3-(2,2-difluoroethoxy)-5-fluoro-phenyl]-5-methyl-2-pyrimidin-2-yl-7,8-dihydro-5H-pyrido[4,3-d]pyrimidine] | 22 nM | 
CC1c2cnc(-c3ccccn3)nc2CCN1c1cc(F)c(F)c(OCC(=O)N2CCCC2)c1 (stereo not shown) [Example 31, 2-[2,3-difluoro-5-[5-methyl-2-(2-pyridyl)-7,8-dihydro-5H-pyrido[4,3-d]pyrimidin-6-yl]phenoxy]-1-pyrrolidin-1-yl-ethanone] | 156 nM | 
CC1c2cnc(-c3ccccn3)nc2CCN1c1cc(OCC2CCCO2)cc(F)n1 (stereo not shown) [Example 189, 6-[6-fluoro-4-(tetrahydrofuran-2-ylmethoxy)-2-pyridyl]-5-methyl-2-(2-pyridyl)-7,8-dihydro-5H-pyrido[4,3-d]pyrimidine] | 40 nM | 
CC1c2cnc(-c3ncccn3)nc2CCN1c1cc(F)c(F)c(OCC(=O)NC2CCOC2)c1 (stereo not shown) [Example 83, 2-[2,3-difluoro-5-(5-methyl-2-pyrimidin-2-yl-7,8-dihydro-5H-pyrido[4,3-d]pyrimidin-6-yl)phenoxy]-N-tetrahydrofuran-3-yl-acetamide] | 190 nM | 

Compound | IC50 [2] | also measured
CC1c2cnc(-c3ncccn3)nc2CCN1c1cc(F)c(F)c(OCC(=O)N2CCOCC2)c1 (stereo not shown) [Example 84, 2-[2,3-difluoro-5-(5-methyl-2-pyrimidin-2-yl-7,8-dihydro-5H-pyrido[4,3-d]pyrimidin-6-yl)phenoxy]-1-morpholino-ethanone] | 266 nM | 
CC1c2cnc(-c3ncccn3)nc2CCN1c1cc(OCC2CCCO2)cc(F)n1 (stereo not shown) [Example 166, 6-[6-fluoro-4-(tetrahydrofuran-2-ylmethoxy)-2-pyridyl]-5-methyl-2-pyrimidin-2-yl-7,8-dihydro-5H-pyrido[4,3-d]pyrimidine] | 19 nM | 
COCCOc1cc(N2CCc3nc(-c4ccccn4)ncc3C2C)cc(F)c1F (stereo not shown) [Example 19, 6-[3,4-difluoro-5-(2-methoxyethoxy)phenyl]-5-methyl-2-(2-pyridyl)-7,8-dihydro-5H-pyrido[4,3-d]pyrimidine] |  | IC50 [1]: 42 nM
CC1c2cnc(-c3ccccn3)nc2CCN1c1cc(OCCCOCC(N)=O)cc(F)n1 (stereo not shown) [Example 186] | 18 nM | 
CCOC(=O)CC1c2cnc(-c3ccccn3)nc2CCN1c1cc(F)c(F)c(OC)c1 (stereo not shown) [Example 36, ethyl 2-[6-(3,4-difluoro-5-methoxy-phenyl)-2-(2-pyridyl)-7,8-dihydro-5H-pyrido[4,3-d]pyrimidin-5-yl]acetate] | 39800 nM | 
CC1c2cnc(-c3ncccn3)nc2CCN1c1cc(F)c(F)c(OCC2CCS(=O)(=O)C2)c1 (stereo not shown) [Example 100] | 96 nM | 
CC1c2cnc(-c3ncccn3)nc2CCN1c1cc(OCCCCCCCC(=O)O)cc(F)n1 (stereo not shown) [Example 168, 8-[[2-fluoro-6-(5-methyl-2-pyrimidin-2-yl-7,8-dihydro-5H-pyrido[4,3-d]pyrimidin-6-yl)-4-pyridyl]oxy]octanoic acid] | 21 nM | 
CC1c2cnc(-c3ncccn3)nc2CCN1c1cc(OCCCCCC(=O)O)cc(F)n1 (single isomer, unassigned; (-)) [Example 164, (−)-6-[[2-fluoro-6-[5-methyl-2-pyrimidin-2-yl-7,8-dihydro-5H-pyrido[4,3-d]pyrimidin-6-yl]-4-pyridyl]oxy]hexanoic acid] | 22 nM | 
CC1c2cnc(-c3ncccn3)nc2CCN1c1cc(OCCCCCCC(N)=O)cc(F)n1 (single isomer, unassigned; (-)) [Example 156, (−)-7-[[2-fluoro-6-[5-methyl-2-pyrimidin-2-yl-7,8-dihydro-5H-pyrido[4,3-d]pyrimidin-6-yl]-4-pyridyl]oxy]heptanamide] | 6 nM | 
COc1cc(F)nc(N2CCc3nc(-c4ncccn4)ncc3C2C)c1 (single isomer, unassigned; (+)) [Example 139, (+)-6-(6-fluoro-4-methoxy-2-pyridyl)-5-methyl-2-pyrimidin-2-yl-7,8-dihydro-5H-pyrido[4,3-d]pyrimidine] |  | IC50 [1]: 1590 nM
COc1cc(N2CCc3nc(-c4ncccn4)ncc3C2C)nc(F)c1I (stereo not shown) [Example 128, 6-(6-fluoro-5-iodo-4-methoxy-2-pyridyl)-5-methyl-2-pyrimidin-2-yl-7,8-dihydro-5H-pyrido[4,3-d]pyrimidine] | 5 nM | 
CC1c2cnc(-c3ncccn3)nc2CCN1c1cc(N)cc(F)n1 (stereo not shown) [Example 210, 2-fluoro-6-(5-methyl-2-pyrimidin-2-yl-7,8-dihydro-5H-pyrido[4,3-d]pyrimidin-6-yl)pyridin-4-amine] | 65 nM | 
COc1cc(Cl)nc(N2CCc3nc(-c4ncccn4)ncc3C2C)c1 (stereo not shown) [Example 126] | 8 nM | 
CC1c2cnc(-c3ccccn3)nc2CCN1c1cc(OCC2CC2)cc(F)n1 (stereo not shown) [Example 191, 6-[4-(cyclopropylmethoxy)-6-fluoro-2-pyridyl]-5-methyl-2-(2-pyridyl)-7,8-dihydro-5H-pyrido[4,3-d]pyrimidine] | 35 nM | 
COC(=O)C(C(=O)OC)C1c2cnc(-c3ccccn3)nc2CCN1c1ccc(S(C)(=O)=O)cc1 (stereo not shown) [Example 8] | 19600 nM | 
